Reference: patent publication US7582300B2, “Modulation of gamma delta T cells to regulate airway hyperresponsiveness” (National Jewish Health, priority 1999, dated 2009)

Experiments:
γδ T cells = assay: Stimulation of γδ T cells / γδ T cell hybridomas in vitro; format: cell-based; settings: for stimulation of γδ T cell hybridomas: phospholipids tested by the inventors
αβ T cell hybridomas = assay: Stimulation of αβ T cell hybridomas in vitro; format: cell-based

| Substance | stimulation of γδ T cells by peptides (γδ T cells) | stimulation of γδ T cell hybridomas (γδ T cells) | stimulation of αβ T cell hybridomas (αβ T cell hybridomas) |
| --- | --- | --- | --- |
| FGLQLEL (listed as Mycobacterium leprae) [SEQ ID NO:2, peptide from mycobacterial HSP-60 protein (from M. leprae)] | stimulatory for γδ T cells |  |  |
| FALQLEL [SEQ ID NO:1] | stimulatory for γδ T cells |  |  |
| phosphatidyl-glycerol |  | weakly stimulatory |  |
| Cardiolipin |  | selectively stimulates γδ T cell hybridomas | not αβ T cell hybridomas |
